Counter-ions that a name gives are not always drawn.
Experiment: Solubility of PDE5 inhibitors in formulation carriers and co-solvents
Details: for solubility in water: result in words
Source text: In the absence of ethanol an alternative preservative could be used, though methyl parabens and potassium sorbate precipitated out of solution.
Suitable sweeteners were sucralose (0.05%) and suitable flavourings were strawberry flavour 501094 (0.5%) and orange juice flavour 506304 (0.5%).
Cremophor EL (macrogol glycerol ricinoleate Ph Eur) was identified as a component that was able to maintain menthol, peppermint oil, aniseed and lemon oil in solution. These flavours were firstly mixed at 10% w/w with Cremophor EL, and the resultant combination then mixed with water (10% w/w in purified water). […] Note that vanillin also degraded in Cremophor EL, rendering it unusable. […] The action of Cremophor EL here is that of a water-miscible oil-based solvent. Sildenafil and vardenafil remained in solution at a concentration of at least 60 mg/ml and 30 mg/ml, respectively, in the presence of 10% Cremophor EL.

[1] = Miglyol 810 (medium-chain triglycerides Ph Eur), with or without ethanol

SMILES | solubility in Miglyol 810 [1] | solubility in other potential solvents e.g. PEG (PEG, even using ethanol as a co-solvent) | solubility in water (water) | solubility in Miglyol 810 | solubility (water)
CN1CC(=O)N2[C@H](c3ccc4c(c3)OCO4)c3[nH]c4ccccc4c3C[C@@H]2C1=O [Tadalafil (base), Tadalafil] | insoluble | insoluble | insoluble |  | 
CCCc1nc(C)c2c(=O)[nH]c(-c3cc(S(=O)(=O)N4CCN(CC)CC4)ccc3OCC)nn12 [Vardenafil (hydrochloride trihydrate), vardenafil hydrochloride trihydrate] |  |  |  | insoluble | ≥ 50 mg/mL
CCCc1nn(C)c2c(=O)[nH]c(-c3cc(S(=O)(=O)N4CCN(C)CC4)ccc3OCC)nc12 [sildenafil (base), sildenafil] | Neither sildenafil (base) nor sildenafil citrate were found to be soluble |  | Neither sildenafil (base) nor sildenafil citrate were found to be soluble |  | 
